From patent US20050148518A1, “Anti-bacterial compositions” (Rowett Research Institute, priority 2002, published 2005)

Columns and labels:
[1] = tested on: S. enteritidis; experiment: Growth inhibition monitored by spectrophotometer (650 nm); assay type: cell-based, Salmonella enteritidis; conditions: Coumarin 2 mM; L-lactate concentration not given
[2] = tested on: L. monocytogenes; experiment: as above; assay type: cell-based, Listeria monocytogenes; conditions: 1.25 mM Coumarin; L-lactate concentration not given
[3] = tested on: Salmonella enteritidis NCTC 4444; experiment: Viability (killing) of S. enteritidis treated with L-lactate and Coumarin; assay type: cell-based
[4] = tested on: 8 E. coli O157:H7 strains and 8 non-O157:H7 E. coli strains; assay type: cell-based
[5] = tested on: E. coli O157:H7 strain NCTC 12900; assay type: cell-based, Escherichia coli O157:H7; conditions: for effect on viability of single compounds (FIG. 6A-C): L-lactate 50 mM or coumarin 7.5 mM alone; for dose dependence of inactivation (FIG. 1): L-lactate 50-200 mM, D-lactate 100-200 mM; for effect on viability of single compounds (FIG. 7A): citrate 50 mM or esculetin 7.5 mM alone
[6] = tested on: E. coli O157:H7 strain NCTC 12900; experiment: Growth inhibition monitored by spectrophotometer (650 nm); assay type: cell-based, Escherichia coli O157:H7; conditions: 37° C.; for growth compared to the control (FIG. 13B): 0.625 mM Coumarin, 18 mM L-lactate; for growth compared to the control (FIG. 13A): 12.5 mM L-lactate, 1.25 mM esculetin
[7] = tested on: methicillin-resistant Staphylococcus aureus (MRSA) strain NCTC 10442; experiment: Viability (killing) of MRSA treated with L-lactate and Coumarin; assay type: cell-based
[8] = tested on: S. aureus; experiment: Growth inhibition monitored by spectrophotometer (650 nm); assay type: cell-based, Staphylococcus aureus; conditions: Coumarin 1.25 mM, L-lactate 5 mM
[9] = tested on: Listeria monocytogenes NCTC 11994; experiment: Viability (killing) of L. monocytogenes treated with L-lactate and Coumarin; assay type: cell-based

Compound: O=c1ccc2ccccc2o1 [Coumarin, 1,2 benzopyrone]
- growth (FIG. 13C) [1]: inhibited the growth of S. enteritidis slightly
- growth (FIG. 13D) [2]: did not affect the growth of L. monocytogenes
- effect on viability (FIG. 11B) ([3]; Coumarin 6.8 mM alone): had no effect on the viability
- effect on viability (FIG. 8A) ([3]; Coumarin 10 mM alone, pH 3.8): did not affect the viability
- survival (FIG. 10) [4]: had little effect on the survival
- effect on viability (FIG. 11A) ([5]; Coumarin 6.8 mM alone): had no effect on the viability
- effect on viability of single compounds (FIG. 6A-C) ([5]; 37° C., pH 3.8): neither 7.5 mM Coumarin (FIG. 6B) nor 7.5 mM umbelliferone (FIG. 6C) affected viability
- growth compared to the control (FIG. 13B) [6]: only slightly reduced the extent of growth
- effect on viability (FIG. 11D) ([7]; Coumarin 6.8 mM alone): had no effect on the viability
- growth (FIG. 13E) [8]: inhibited
- effect on viability (FIG. 11C) ([9]; Coumarin 6.8 mM alone): had no effect on the viability
- effect on viability (FIG. 8B) ([9]; Coumarin 10 mM alone, pH 3.8): had no effect on viability

Compound: C[C@@H](O)C(=O)O [D-lactate, reference compound]
- dose dependence of inactivation (FIG. 1) ([5]; pH 3.8, 37° C.): dose-dependent

Compound: O=C(O)c1ccccc1 [benzoate]
- reduction in numbers / viability (FIG. 7A, 7B) ([5]; citrate 50 mM, benzoate 25 mM, esculetin 7.5 mM, 8 hours, pH 3.8): approximately 4 log10 units

Compound: O=C(O)CC(O)(CC(=O)O)C(=O)O [citrate]
- effect on viability of single compounds (FIG. 7A) ([5]; pH 3.8): neither citrate (50 mM) nor esculetin (7.5 mM) when used individually affected the viability

Compound: O=c1ccc2cc(O)c(O)cc2o1 [esculetin]
- effect on viability of single compounds (FIG. 7A) ([5]; pH 3.8): neither citrate (50 mM) nor esculetin (7.5 mM) when used individually affected the viability
- growth compared to the control (FIG. 13A) [6]: caused a small reduction in the growth

Compound: COc1cc2ccc(=O)oc2cc1O [scopoletin]
- effect on viability of single compounds (FIG. 6A-C) ([5]; 37° C., pH 3.8): neither L-lactate (50 mM) nor scopoletin (7.5 mM) on their own affected the viability

Compound: O=c1ccc2ccc(O)cc2o1 [umbelliferone]
- effect on viability of single compounds (FIG. 6A-C) ([5]; 37° C., pH 3.8): neither 7.5 mM Coumarin (FIG. 6B) nor 7.5 mM umbelliferone (FIG. 6C) affected viability

Compound: L-lactate
- growth (FIG. 13D) [2]: inhibited growth slightly
- inactivation (percentage survival), L-lactate versus D-lactate (FIG. 3) ([4]; pH 3.8): much greater than that of D-lactate for all the E. coli strains tested
- antimicrobial effect, L-lactate versus D-lactate (FIG. 2) ([5]; 100 mM each, pH 3.8, 37° C.): exerted a greater antimicrobial effect than 100 mM D-lactate
- effect on viability of single compounds (FIG. 6A-C) ([5]; 37° C., pH 3.8): neither L-lactate (50 mM) nor scopoletin (7.5 mM) on their own affected the viability
- decrease in viability (FIG. 11A) ([5]; L-lactate 2%, Coumarin 6.8 mM, 10 minutes): approximately 3 log10 units
- effectiveness at reducing numbers, L-lactate versus D-lactate (FIG. 1) ([5]; L-lactate 50, 100, 150 or 200 mM, D-lactate 100, 150 or 200 mM, pH 3.8, 37° C.): more effective at reducing numbers of the E. coli O157:H7 strain NCTC 12900 than D-lactate at all concentrations measured
- dose dependence of inactivation (FIG. 1) ([5]; pH 3.8, 37° C.): dose-dependent
- growth compared to the control (FIG. 13B) [6]: inhibited substantially
- growth compared to the control (FIG. 13A) [6]: caused a small reduction in the growth
- reduction in viability (FIG. 8C) ([7]; L-lactate 50 mM, Coumarin 10 mM, 8 hours, pH 3.8): greater than 3 log10 units
- reduction in viability (FIG. 11D) ([7]; L-lactate 2%, Coumarin 6.8 mM, 60 minutes): approximately 2 log10 units
- growth (FIG. 13E) [8]: inhibited
- reduction in viability (FIG. 8B) ([9]; L-lactate 50 mM alone, 8 hours, pH 3.8): greater than 5 log10 units
